Residues, ends and D or L forms follow the SMILES beside them.
Experiments:
A673 cells = assay: Living cell fluorescence imaging; assay type: cell-based, human; settings: A673 cells pre‐incubated with 50 μM E9R for 1 h, then 10 μM CS2‐N‐E9R
Experimental: E/F‐positive ES cells (A673) and E/F‐negative sarcoma cells (143B) were then seeded into confocal culture dishes at a density of 2 × 10^5 cells each dish in 1.5‐mL medium containing 10% FBS. After 24 h of cell attachment, the dishes were then washed three times with 1 mL PBS. The dishes were then cultured in medium with 10 μM probe CS2‐N‐E9R. The intracellular probe aggregations were then observed by Leica‐LCS‐SP8‐STED confocal microscope (Leica, Wetzlar, Germany).
E/F‐positive ES cells (A673 cells, RD‐ES cells) and E/F‐negative osteosarcoma cells (143B cells), hepatoma carcinoma cells (Hep3B cells), and […] embryonic human kidney cells (293T cells) were seeded into confocal culture dishes. All the dishes were incubated with 10 μM CS2‐N‐E9R for 1 h and washed three times with PBS buffer before imaging, except for the control and blocking groups. For the control group, A673 cells were incubated with 10 μM control probe CS2‐N‐E. For the blocking group, A673 cells were pre‐incubated with 50 μM peptide E9R as a blocking agent for 1 h, after that incubated with 10 μM probe CS2‐N‐E9R.

E/F in A673 cells = target: T1, E/F in A673 cells (Homo sapiens, UniProt Q01543+Q01844); assay: Binding affinity test (competition of E9R with CS2‐N‐E9R); settings: E9R 4 × 10^−3 M to 4 × 10^−9 M incubated 1 h, washed, then 4 μM CS2‐N‐E9R 40 min, Odyssey Infrared Imager, average of quadruple wells, read-out: IC50 for the inhibition of CS2‐N‐E9R binding E/F
T1 construct: endogenous in cells; host or cells: A673 cells (fixed and permeabilised in A8, living in A10)
T1 sequence (Q01844+Q01543 with tags, fused parts or gaps): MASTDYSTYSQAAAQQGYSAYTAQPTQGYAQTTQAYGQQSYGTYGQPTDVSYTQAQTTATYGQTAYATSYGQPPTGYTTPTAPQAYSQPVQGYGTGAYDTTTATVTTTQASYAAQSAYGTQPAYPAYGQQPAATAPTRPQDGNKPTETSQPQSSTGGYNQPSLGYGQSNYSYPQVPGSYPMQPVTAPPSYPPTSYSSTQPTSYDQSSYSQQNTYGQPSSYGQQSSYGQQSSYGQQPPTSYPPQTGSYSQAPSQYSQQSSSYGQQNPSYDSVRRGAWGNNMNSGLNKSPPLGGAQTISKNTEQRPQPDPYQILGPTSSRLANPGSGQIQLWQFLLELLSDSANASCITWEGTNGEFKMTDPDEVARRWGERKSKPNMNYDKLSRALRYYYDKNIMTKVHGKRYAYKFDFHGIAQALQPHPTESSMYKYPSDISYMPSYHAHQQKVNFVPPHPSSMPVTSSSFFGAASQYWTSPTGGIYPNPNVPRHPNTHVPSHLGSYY
Experimental: As to the binding affinity test, serial concentrations of E9R (from 4 × 10^−3 M to 4 × 10^−9 M) were prepared as competitors for CS2‐N‐E9R. A673 cells were seeded into 96‐well Black Polystyrene Assay plate at a concentration of 4 × 10^3 cells per well with 150 μL medium containing 10% FBS at incubator for 24 h. Different concentrations of E9R were added into palate and incubated for 1 h, and then washed three times with PBS (pH 7.4). 4 μM of CS2‐N‐E9R was then added into each well and incubated for another 40 min. After that the samples were washed and imaged with Odyssey® Infrared Imager. Each data point represents the average value of quadruple wells. Data were analyzed using GRAPHPAD PRISM (GraphPad Software, San Diego, CA, USA). IC50 values, which were defined as the concentration of competitive agent required to inhibit 50% of CS2‐N‐E9R binding, were calculated.

CC[C@H](C)[C@H](NC(=O)[C@@H](NC(=O)[C@H](C)NC(=O)[C@H](CC(=O)O)NC(=O)[C@H](CC(C)C)NC(=O)[C@@H]1CCCN1C(=O)[C@@H]1CCCN1C(=O)[C@@H]1CCCN1)C(C)C)C(=O)N[C@@H](CCC(=O)O)C(=O)N[C@@H](C)C(=O)O [E9R] (H-PPPLDAVIEA-OH; N-terminus assumed)
fluorescence of CS2‐N‐E9R after pretreatment with blocking agent (A673 cells): fluorescence muted
IC50 (E/F in A673 cells): 3.69 µM

Reference: article PMC8637573, “EWS–FLI1‐targeting peptide identifies Ewing sarcoma tumor boundaries and lymph node metastasis via near‐infrared imaging” (Molecular Oncology, 2021)
